Holding throughout (type): cell-based
One assay has as its system Fusarium moniliforme. Conditions: B = pyraclostrobin; for EC50: Fusarium verticillioides, mycelial growth, method of Example 17; for ATI: ZJS178 as standard reagent. As to the method:
(§1) The above-mentioned F. oxysporum f.sp. lycopersici was inoculated on a PDA medium, and 50 μg/mL salicylhydroxamic acid (SHAM) was added to the culture medium to inhibit the […] bypass respiration.
Test object: Fusarium moniliforme preserved in a culture room of the laboratory. The bioassay method was referred to the description in Example 17.

For assay [1], the system named is Fusarium graminearum. The assay can be described thus: microbe, parasite or virus in culture. The settings on record: for EC50: Fusarium graminearum, 72 h; for ATI: ZJS178 as standard reagent, B = pydiflumetofen.
Assay [2] relates to Fusarium graminearum. Put plainly: microbe, parasite or virus in culture. The settings on record: for ATI: B = prochloraz; for EC50: Fusarium graminearum.
Assay [3] concerns Fusarium fujikuroi. The settings on record: B = fludioxonil; for EC50: Fusarium fujikuroi, 72 h, mycelial growth, PDA, 25° C., 3 days; for ATI: ZJS178 as standard reagent. The source says:
Test object: Fusarium fujikuroi preserved in a culture room of the laboratory.
(§2) The bioassay method was referred to the description in Example 9.

Assay [4] relates to Fusarium oxysporum. Conditions: B = fludioxonil; for EC50: Fusarium oxysporum, 72 h, mycelial growth, PDA, 25° C., 3 days; for ATI: ZJS178 as standard reagent.
Excerpt: Test object: Fusarium oxysporum preserved in the laboratory.
as §2

The subject of assay [5] is tebuconazole-sensitive Fusarium graminearum (TS). Put plainly: microbe, parasite or virus in culture. The settings on record: for EC50: Fusarium graminearum, 72 h; for Actual Toxicity Index (ATI): ZJS178 as standard reagent, TS strain.
The subject of assay [6] is Fusarium oxysporum. Put plainly: microbe, parasite or virus in culture. Conditions: for EC50: Fusarium oxysporum, 72 h.
In assay [7] the test system is Fusarium oxysporum. The assay can be described thus: microbe, parasite or virus in culture.
Assay [8] concerns Fusarium fujikuroi. The assay can be described thus: microbe, parasite or virus in culture. The settings on record: for EC50: Fusarium fujikuroi, 72 h.
The subject of assay [9] is F. oxysporum f.sp. lycopersici. Conditions: B = azoxystrobin; for EC50: mycelial growth, PDA with 50 μg/mL SHAM, 25° C., 3 days; for ATI: ZJS178 as standard reagent. As to the method:
Test object: F. oxysporum f.sp. lycopersici isolated from diseased tomatoes from the field. The tested strains were identified by morphology and pathogenicity, and then stored in the laboratory for future use.
as §1

The subject of assay [10] is metconazole-resistance Fusarium fujikuroi(MR). The assay can be described thus: microbe, parasite or virus in culture.
The test system of assay [11] is metconazole-sensitive Fusarium fujikuroi(MS). Put plainly: microbe, parasite or virus in culture.
Assay [12] relates to F. oxysporum f.sp. niveum. The settings on record: for EC50: Fusarium oxysporum, 72 h.

≈ marks a conversion by molar mass, not a printed value. Read-outs that look alike come from different tables or passages of the source.

For `COC(=O)N(OC)c1ccccc1COc1ccn(-c2ccc(Cl)cc2)n1` [Pyraclostrobin (B), methyl N-[2-[[1-(4-chlorophenyl)pyrazol-3-yl]oxymethyl]phenyl]-N-methoxycarbamate, reference compound], in the assay on Fusarium moniliforme, the 50% effective concentration (EC50) came to 4.99 µg/mL (≈ 12.9 µM) and the ATI turned out to be 13.61.
In the assay with Fusarium graminearum [1], `CON(C(=O)c1cn(C)nc1C(F)F)C(C)Cc1c(Cl)cc(Cl)cc1Cl` (racemic) [Pydiflumetofen, 3-(difluoromethyl)-N-methoxy-1-methyl-N-[(RS)-1-methyl-2-(2,4,6-trichlorophenyl)ethyl]pyrazole-4-carboxamide, reference compound] registered a 50% effective concentration (EC50) of 0.319 µg/mL (≈ 0.748 µM) and an ATI of 11.88.
In the assay on Fusarium graminearum [2], `CCCN(CCOc1c(Cl)cc(Cl)cc1Cl)C(=O)n1ccnc1` [Prochloraz (B), N-propyl-N-[2-(2,4,6-trichlorophenoxy)ethyl]-imidazole-1-carboxamide, reference compound] gave an ATI of 11.88 and an EC50 of 0.319 µg/mL (≈ 0.847 µM).
For the compound `N#Cc1c[nH]cc1-c1cccc2c1OC(F)(F)O2` [Fludioxonil (B), 4-(2,2-difluoro-1,3-benzodioxol-4-yl) pyrrole-3-carbonitrile, reference compound], in the assay on Fusarium fujikuroi [3], the EC50 is 0.0529 µg/mL (≈ 0.213 µM) and the ATI is reported as 90.93. Further, in the assay with Fusarium oxysporum [4], a half-maximal effect (EC50) was put at 0.0683 µg/mL (≈ 0.275 µM) and the ATI is reported as 128.55.
Take `CC(C)(C)C(O)(CCc1ccc(Cl)cc1)Cn1cncn1` (racemic) [Tebuconazole (B), (RS)-1-p-chlorophenyl-4,4-dimethyl-3-(1H-1,2,4-triazol-1-ylmethyl)pentan-3-ol, reference compound]: in [5], the response was half-maximal at 0.175 µg/mL (≈ 0.567 µM) (EC50) and the “Actual Toxicity Index (ATI)” value was 22.05. Besides, in the assay on Fusarium oxysporum [6], the ATI is on record as 14.46 and the EC50 was 0.276 µg/mL (≈ 0.896 µM).
With `CCCN(CCOc1c(Cl)cc(Cl)cc1Cl)C(=O)n1ccnc1.CCCN(CCOc1c(Cl)cc(Cl)cc1Cl)C(=O)n1ccnc1.CCCN(CCOc1c(Cl)cc(Cl)cc1Cl)C(=O)n1ccnc1.CCCN(CCOc1c(Cl)cc(Cl)cc1Cl)C(=O)n1ccnc1.[Cl][Mn][Cl]` [Prochloraz-manganese chloride, reference compound], in the assay on Fusarium oxysporum [7], the ATI stood at 14.46 and the EC50 is 0.2758 µg/mL.
As to `Cc1nn(C)c(F)c1C(=O)Nc1ccccc1C(C)CC(C)C` (centres unmarked) [Penflufen (B), 5-fluoro-1,3-dimethyl-N-[2-(4-methylpentan-2-yl)phenyl]-1H-pyrazole-4-carboxamide, reference compound], in the assay on Fusarium fujikuroi [8], the ATI is recorded as 22.85 and the half-maximal effective concentration (EC50) was 0.294 µg/mL (≈ 0.925 µM).
As for `CCOC(=O)/C(C#N)=C(\N)c1ccc(N(C)CC)cc1` [ZJS178 (A), ethyl 2-cyano-3-amino-3-[4-(N-ethyl-N-methylamino)phenyl]acrylate], the ATI (in the assay with Fusarium graminearum [2]; in the assay with Fusarium fujikuroi [3]; in assay [9]; in the assay with Fusarium moniliforme; in the assay on Fusarium oxysporum [7]; in the assay with Fusarium fujikuroi [8]) was 100.00 throughout. The ATI with Fusarium oxysporum [6] was 100.00; in assay [10] (ZJS178 as standard reagent, MR strain), 100.00; in assay [11], 100.00; in the assay with Fusarium graminearum [1], 100.00; with Fusarium oxysporum [4], 100.00. Further, the EC50 worked out at 0.0379 µg/mL (≈ 0.139 µM) with Fusarium graminearum [2]; 0.0481 µg/mL (≈ 0.176 µM) in the assay with Fusarium fujikuroi [3]; 0.0461 µg/mL in assay [9] (Fusarium oxysporum, 72 h, read-out: EC50); 0.0385 µg/mL (≈ 0.141 µM) in [5]; 0.678 µg/mL (≈ 2.48 µM) with Fusarium moniliforme; 0.0399 µg/mL (≈ 0.146 µM) in the assay on Fusarium oxysporum [7] (Fusarium oxysporum). The EC50 with Fusarium fujikuroi [8] was found to be 0.0671 µg/mL (≈ 0.245 µM); in the assay on Fusarium oxysporum [6] it was 0.0399 µg/mL (≈ 0.146 µM); in assay [10] (Fusarium fujikuroi, 72 h), 0.0621 µg/mL (≈ 0.227 µM); in assay [11] (Fusarium fujikuroi, 72 h), 0.069 µg/mL (≈ 0.252 µM); in [12], 0.0569 µg/mL (≈ 0.208 µM); in the assay on Fusarium graminearum [1], 0.0379 µg/mL (≈ 0.139 µM). The half-maximal effective concentration (EC50) with Fusarium oxysporum [4] was 0.0878 µg/mL (≈ 0.321 µM). Besides, the “Actual Toxicity Index (ATI)” value in assay [5] is 100.00. Also, the “Actual Toxicity Index” value in assay [12] (ZJS178 as standard reagent, B = thiophanate-methyl) is on record as 100.00.
In [12], `COC(=O)NC(=S)Nc1ccccc1NC(=S)NC(=O)OC` [Thiophanate-, 1,2-bis (3-carbomethoxy-2-thioureido)benzene, reference compound] gave a concentration for a half-maximal effect (EC50) of 0.222 µg/mL (≈ 0.65 µM).
On to `CO/C=C(/C(=O)OC)c1ccccc1Oc1cc(Oc2ccccc2C#N)ncn1` [Azoxystrobin (B), (E)-methyl 2-{2-[6-(2-cyanophenoxy)pyrimidin-4-yloxy]phenyl}-3-strobilurin, reference compound], for which, in assay [9], the ATI is given as 5.59 and the half-maximal effective concentration (EC50) was determined as 0.8247 µg/mL.

For orientation: EC50 means the concentration at which the effect is half-maximal.
